Results on one compound are retold here after patent US20080206311A1, “Sucrase Activity Inhibitor, Glucoamylase Activity Inhibitor and Food and Feed Containing the Same” (MITSUI SUGAR CO., LTD., priority 2005, published 2008).

The test system of assay [1] is maltase. The assay is described as follows: Maltase activity inhibition with rat small-intestinal enzyme liquid, substrate maltose. Format: biochemical. The settings on record: 5% maltose + 5% test sample. The procedure: (§1) Palatinose (trade name: Palatinose IC, ex Shin Mitsui Sugar Co., Ltd.) (test sample) was used as a sample for investigating each enzyme activity inhibitory effect. Maltose and sucrose were used as substrates for maltase and sucrose, respectively. The test sample and the substrates were dissolved in 0.1 M phosphate buffer (pH 6.8) at the concentration shown in Table 1 below to prepare test solutions (Solutions 4 and 5). Also, the test sample or the substrates were dissolved in 0.1 M phosphate buffer (pH 6.8), respectively to at the concentration shown in Table 1 below to prepare control solutions (Solution 1 for the test sample and Solutions 2 and 3 for the substrates).
Two grams of rat small-intestinal acetone powder (ex Sigma Corporation) were dissolved in 20 ml of 0.1 M phosphate buffer (pH 6.8), left standing one day at 5° C., and subsequently subjected to centrifugal separation (8000 rpm×15 min.). The supernatant was filtered through a 0.8 μm membrane filter to obtain a small-intestinal enzyme liquid. This liquid contained a mixture of enzymes present in small intestine, such as sucrose, glucoamylase, maltase, and isomaltase. […]
(§2) The glucose concentration in each solution after the reaction was measured using the F-kit Glucose (ex Roche). A liberated glucose concentration (g/l) was calculated by subtracting the blank value (0.1 M phosphate buffer alone) and the concentration of glucose originally contained in the test sample from each glucose concentration measured.
Next, each of the liberated glucose concentration was input in the following equation to obtain decomposition inhibition ratio for maltase and sucrose. […] The decomposition inhibition ratio was determined as a measure for the inhibitory effect. […]
Each 5 ml of the aforementioned test solutions and control solutions was subjected to the enzymatic reaction in the same procedures as in Example 1. The liberated glucose concentration, the decomposition inhibition ratio for maltase and the decomposition inhibition ratio for sucrose were calculated for each solution after the reaction.

Assay [2] deals with small-intestinal enzyme liquid. Nature of the assay: Decomposition of a saccharide alone (control solution) by small-intestinal enzyme liquid. Format: biochemical, rat. Conditions: 5% saccharide alone. The procedure: as §1
Two grams of rat small-intestinal acetone powder (ex Sigma Corporation) were dissolved in 20 ml of 0.1 M phosphate buffer (pH 6.8), left standing one day at 5° C., and subsequently subjected to centrifugal separation (8000 rpm×15 min.). The supernatant was filtered through a 0.8 μm membrane filter to obtain a small-intestinal enzyme liquid. This liquid contained a mixture of enzymes present in small intestine, such as sucrose, glucoamylase, maltase, and isomaltase.
Each 0.25 ml of the small-intestinal enzyme liquid was added to each 5 ml of Solutions 1 through 5 and placed in a water bath at 37° C. to allow them to react for 60 min. while shaken at 60 strokes/min. After the reaction, they were heated in a boiling water bath for 3 min. for inactivation of the enzymes.
as §2
The fructose concentration was measured using the F-kit Fructose (ex Roche). The liberated fructose concentration, g/l, was obtained by subtracting the blank value (0.1 M phosphate buffer alone) from the resultant fructose concentration.
The procedures in Example 1 were repeated with the exception that palatinit, palatinose or isomaltose was used as a test sample and lactose was used as a substrate. The test samples and the substrate were dissolved in 0.1 M phosphate buffer (pH 6.8) to attain the concentration shown in Table 5 to thereby prepare three test solutions. Besides, each of the test samples or the substrate was dissolved in 0.1 M phosphate buffer (pH 6.8) to attain the concentration shown in Table 5 to thereby prepare control solutions. Each 5 ml of the aforementioned test solutions and the control solutions was subjected to the enzymatic reaction according to the same procedures as in Example 1. The glucose concentration, the fructose concentration and the galactose concentration were measured. The galactose concentration was measured using F-kit Galactose (ex Roche). The liberated galactose concentration, g/l, was calculated by subtracting the blank value (0.1 M phosphate buffer alone) from the measured galactose concentration.

Assay [3] concerns glucoamylase. The assay is described as follows: Ratio of inhibitor to the substrate dextrin (Examples 10, 11). Format: biochemical, rat. As for the experimental part: Each 0.15 ml of a small intestinal enzyme solution was added to each 2.5 ml of the aforementioned 20 samples, each mixture, and placed in a water bath at 37° C. to allow reaction for 10 minutes while shaken at 60 strokes/min. At the end of the reaction, the mixture was heated in a boiling water bath for 3 min. for inactivation of the enzyme. As a blank, 0.15 ml of the intestinal enzyme solution was added to 0.1 M phosphate buffer (pH 6.8) and the enzyme was inactivated immediately.
After the reaction, the glucose concentration in each solution was measured using the F-kit Glucose (ex Roche) as in Example 1.
The procedures in Example 8 were repeated with the exception that sixteen samples with the concentrations shown in Table 13, Samples C-1 through C-16, were dissolved in 0.1 M phosphate buffer (pH 6.8) to a final volume of 2.5 ml.
The procedures in Example 8 were repeated with the exception that sixteen samples with the concentrations shown in Table 14, Samples D-1 through D-16, were dissolved in 0.1 M phosphate buffer (pH 6.8) to a final volume of 2.5 ml.

Assay [4] has as its target (Homo sapiens, UniProt P14410). Conditions: 4.3-56 mM sucrose as substrate, 14 mM palatinose as inhibitor; cited from earlier work.
Assay [5] has as its system maltase. The settings on record: maltose as substrate; Non-Patent Publication 4; cited from earlier work.

Sequence of (Homo sapiens, UniProt P14410) (P14410 whole entry): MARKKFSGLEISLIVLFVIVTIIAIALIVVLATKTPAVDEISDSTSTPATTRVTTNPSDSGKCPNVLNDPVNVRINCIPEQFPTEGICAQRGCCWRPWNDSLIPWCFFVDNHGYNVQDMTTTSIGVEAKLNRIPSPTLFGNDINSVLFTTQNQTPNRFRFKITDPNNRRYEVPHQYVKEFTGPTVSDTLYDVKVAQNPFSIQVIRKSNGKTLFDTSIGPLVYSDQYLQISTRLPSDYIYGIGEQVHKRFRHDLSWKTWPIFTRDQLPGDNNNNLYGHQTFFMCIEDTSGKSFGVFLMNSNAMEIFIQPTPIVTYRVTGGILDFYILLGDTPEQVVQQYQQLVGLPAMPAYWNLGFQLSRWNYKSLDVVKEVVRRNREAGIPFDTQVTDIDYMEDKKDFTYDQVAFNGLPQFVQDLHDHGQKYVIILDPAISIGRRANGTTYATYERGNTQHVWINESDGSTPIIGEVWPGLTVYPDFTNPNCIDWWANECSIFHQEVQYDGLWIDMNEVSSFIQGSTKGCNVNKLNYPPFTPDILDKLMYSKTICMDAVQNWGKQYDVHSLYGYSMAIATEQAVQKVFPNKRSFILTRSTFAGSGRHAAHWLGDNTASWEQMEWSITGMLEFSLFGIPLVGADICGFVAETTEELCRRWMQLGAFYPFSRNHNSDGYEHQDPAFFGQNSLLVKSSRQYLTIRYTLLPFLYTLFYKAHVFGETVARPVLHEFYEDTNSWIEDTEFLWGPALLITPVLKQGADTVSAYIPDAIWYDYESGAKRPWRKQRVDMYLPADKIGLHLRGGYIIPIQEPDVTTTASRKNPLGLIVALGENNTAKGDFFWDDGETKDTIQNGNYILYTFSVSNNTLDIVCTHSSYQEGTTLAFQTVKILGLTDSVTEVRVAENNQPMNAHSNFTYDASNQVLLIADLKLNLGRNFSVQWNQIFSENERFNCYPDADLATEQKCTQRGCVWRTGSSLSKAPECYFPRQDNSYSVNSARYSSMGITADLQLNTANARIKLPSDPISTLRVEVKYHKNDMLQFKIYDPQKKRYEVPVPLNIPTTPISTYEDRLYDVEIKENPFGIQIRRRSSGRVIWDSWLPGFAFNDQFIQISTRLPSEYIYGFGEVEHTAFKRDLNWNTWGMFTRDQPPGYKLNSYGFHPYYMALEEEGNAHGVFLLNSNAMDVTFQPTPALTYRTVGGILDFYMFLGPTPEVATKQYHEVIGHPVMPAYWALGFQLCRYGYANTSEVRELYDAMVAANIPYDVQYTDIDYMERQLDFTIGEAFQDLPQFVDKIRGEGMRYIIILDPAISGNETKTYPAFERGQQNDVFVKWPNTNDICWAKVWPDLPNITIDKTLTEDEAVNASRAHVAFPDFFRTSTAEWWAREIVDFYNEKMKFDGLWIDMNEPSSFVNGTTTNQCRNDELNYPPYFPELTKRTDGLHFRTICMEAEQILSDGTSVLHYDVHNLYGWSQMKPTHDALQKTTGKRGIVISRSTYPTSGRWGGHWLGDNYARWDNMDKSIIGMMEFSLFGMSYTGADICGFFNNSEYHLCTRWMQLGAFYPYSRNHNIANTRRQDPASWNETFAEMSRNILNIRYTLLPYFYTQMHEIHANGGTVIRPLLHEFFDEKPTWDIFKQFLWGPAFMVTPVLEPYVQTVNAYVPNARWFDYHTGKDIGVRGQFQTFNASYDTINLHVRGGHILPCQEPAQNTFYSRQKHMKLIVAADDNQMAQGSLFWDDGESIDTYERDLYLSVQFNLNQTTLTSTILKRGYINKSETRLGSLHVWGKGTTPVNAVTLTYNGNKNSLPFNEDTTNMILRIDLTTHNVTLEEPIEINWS

As for `OC[C@H]1O[C@H](OC[C@H]2OC(O)(CO)[C@@H](O)[C@@H]2O)[C@H](O)[C@@H](O)[C@@H]1O` (stereo partly drawn) [palatinose, isomaltulose], the “Maltase activity inhibitory effect (in words)” value in assay [1] is given as “has a maltase activity inhibitory effect”. The Liberated glucose concentration in assay [1] (37° C., 60 min) worked out at 4.757 ± 0.342 g/L; in assay [2] (37° C., 60 min, pH 6.8, Example 1 / Test Example 1), 0.095 ± 0.010 g/L; in assay [2] (Example 3 / Test Examples 2, 3), 0.11 g/L; in assay [2] (Example 4), 0.205 g/L. Besides, the “Decomposition inhibition ratio, %, against maltase” value in assay [1] (Equation 1) is listed as 6%. Also, the Liberated fructose concentration in assay [2] (Example 3 / Test Examples 2, 3) is 0.21 g/L. Further, in assay [2] (Test Example 3), the Liberated galactose concentration turned out to be 0.00 g/L. Also, in assay [3] (dextrin 0.5%, 2%, 5%, 10%, FIG. 8 (palatinose), FIG. 9 (palatinit)), the “Ratio of inhibitor added relative to the weight of dextrin at which the inhibitory effect on decomposition of dextrin was seen at all dextrin concentrations” value is listed as “above 10%”. In addition, in assay [3] (palatinose 5% relative to the weight of dextrin, dextrin concentration 10%), the “Inhibitory effect on decomposition of dextrin (FIG. 8)” value is listed as “no inhibitory effect on decomposition of dextrin was seen”. Moreover, the “Inhibitory effect on the sucrase activity (reported)” value in assay [4] is listed as “no inhibitory effect”. The “Maltase activity inhibitory effect (reported)” value in assay [5] is “have a maltase activity inhibitory effect”.
